This assay concerns CA1 neuron region of hippocampal tissue. As to the kind of experiment: Crystal violet staining of CA1 neuron region of hippocampal tissue after transient global ischemia. Format: in vivo, CD1 mice. Particulars: mice after transient global ischemia; fluoxetine, vitamin C alone or together at trace amount; vs normal and negative control groups. The text has this:
Eight-week old adult male CD1 mice with a weight of 33 g to 37 g were induced to be anesthetized by injecting with 2% isoflurane under an air condition, in which nitrous oxide and oxygen were in a 70:30 ratio, and the mice were induced to have transient global ischemia according to the previous disclosure while the mice were maintained in the anesthetized state with 1% isoflurane (Kim, D. H. et. al, 2009. Food Chem. Toxicol. 47, 1473-1479.). The thus-prepared mice with transient global ischemia put into cages (4 mice/cage) were given ad libitum access to water and foods, and bred in an environment of a constant temperature (23±1° C.) and continuous humidity (60±10%) under a 12 hour light/dark cycle.
Specifically, the brains obtained and stored by performing in the same manner as in <Example 6> were cut into 30 μm coronal plane sections, placed on gelatin-coated slides, stained with crystal violet, and dehydrated by adding 70%, 80%, 90%, and 100% alcohol in this order. Upon dehydration, xylene was added thereto, covered with coverslips, and the CA1 neuron region of hippocampal tissue was observed.

For the compound `CNCCC(Oc1ccc(C(F)(F)F)cc1)c1ccccc1` (centres unmarked) [fluoxetine], the “recovery of hippocampal tissue injury (CA1 neuron region, preserved cells, FIGS. 7 and 8)” value was “a recovery similar to that of the negative control group”.

`O=C1O[C@H]([C@@H](O)CO)C(O)=C1O` [vitamin C, ascorbic acid]: the “recovery of hippocampal tissue injury (CA1 neuron region, preserved cells, FIGS. 7 and 8)” value is “a recovery similar to that of the negative control group”.

Source of the values: patent US10772866B2 (UNIVERSITY-INDUSTRY COOPERATION GROUP OF KYUNG HEE …, priority 2013, dated 2020).
